In the assay the target is T1, glucokinase (GK) enzyme (Homo sapiens, UniProt P35557).
T1 sequence (P35557 1-465): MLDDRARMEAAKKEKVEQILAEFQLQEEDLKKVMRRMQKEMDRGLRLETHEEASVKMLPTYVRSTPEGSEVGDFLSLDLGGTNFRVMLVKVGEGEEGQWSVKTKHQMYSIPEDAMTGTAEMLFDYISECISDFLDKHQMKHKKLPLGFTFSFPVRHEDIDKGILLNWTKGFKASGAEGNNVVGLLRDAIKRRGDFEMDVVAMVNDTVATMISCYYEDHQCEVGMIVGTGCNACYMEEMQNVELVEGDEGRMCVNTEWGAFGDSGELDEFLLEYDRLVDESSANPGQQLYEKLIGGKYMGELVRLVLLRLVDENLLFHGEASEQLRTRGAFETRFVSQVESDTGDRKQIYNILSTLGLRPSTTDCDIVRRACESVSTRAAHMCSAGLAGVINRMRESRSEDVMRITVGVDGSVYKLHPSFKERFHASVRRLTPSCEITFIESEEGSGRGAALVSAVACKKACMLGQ
Description: In-vitro glucokinase (GK) activation assay (coupled with glucose-6-phosphate dehydrogenase, absorbance at 340). The following applies: glucose 2.5 mM, read-out: % of GK activity wrt DMSO; for activity at 0.1 µM: 0.1 uM compound; for activity at 1 µM: 1 uM compound; for activity at 5 µM: 5 uM compound; for activity at 10 µM: 10 uM compound. Type of assay: biochemical. Here is the method:
The compound of the invention was incubated with glucokinase (GK) enzyme (0.2 units) for 10 minutes in assay buffer at 26° C. After incubation, addition of glucose-6-phosphate dehydrogenase (2.5 units), ATP (1 mM) and glucose (2.5 mM). Absorbance is measured at 340 nm for 15 minutes with 10 second interval using UV transparent plate in kinetic mode on Spectramax-190 at 30° C.

Structures are written as SMILES.

In the case of `CCOC(=O)c1cnc(NC(=O)c2cc(Oc3ccc(-c4nnc(C)o4)cc3)cc(OC3CCN(C)C3=O)c2)s1` (centres unmarked) [Example 25, Ethyl 2-(3-(4-(5-methyl-1,3,4-oxadiazol-2-yl)phenoxy)-5-((1-methyl-2-oxopyrrolidin-3-yl)oxy)benzamido)thiazole-5-carboxylate], the activity at 0.1 µM stood at 125%, the activity at 1 µM was 149%, the activity at 5 µM was 203% and the activity at 10 µM is 208%.
The corresponding values for `CCOC(=O)c1csc(NC(=O)c2cc(Oc3ccc(-c4nnc(C)o4)cc3)cc(OC3CCN(C)C3=O)c2)n1` (centres unmarked) [Example 26, Ethyl 2-(3-(4-(5-methyl-1,3,4-oxadiazol-2-yl)phenoxy)-5-((1-methyl-2-oxopyrrolidin-3-yl)oxy)benzamido)thiazole-4-carboxylate] are 109%, 205%, 339% and 357%.
For the compound `CCc1nnc(-c2ccc(Oc3cc(OC4CCN(C)C4=O)cc(C(=O)Nc4nc(C)cs4)c3)cc2)o1` (centres unmarked) [Example 27, 3-(4-(5-Ethyl-1,3,4-oxadiazol-2-yl)phenoxy)-5-((1-methyl-2-oxopyrrolidin-3-yl)oxy)-N-(4-methylthiazol-2-yl)benzamide], the activity at 0.1 µM was 177%, the activity at 1 µM was 262%, the activity at 5 µM was determined as 355% and the activity at 10 µM was 365%.
As for `CC(C)Cc1nnc(-c2ccc(Oc3cc(OC4CCN(C)C4=O)cc(C(=O)Nc4nccs4)c3)cc2)o1` (centres unmarked) [Example 28, 3-(4-(5-Isobutyl-1,3,4-oxadiazol-2-yl)phenoxy)-5-((1-methyl-2-oxopyrrolidin-3-yl)oxy)-N-(thiazol-2-yl)benzamide], the activity at 0.1 µM worked out at 131%, the activity at 1 µM turned out to be 248%, the activity at 5 µM was 336% and the activity at 10 µM is 338%.
The corresponding values for `CCc1nnc(-c2ccc(Oc3cc(OC4CCN(C)C4=O)cc(C(=O)Nc4nccs4)c3)cc2)o1` (centres unmarked) [Example 29, 3-(4-(5-Ethyl-1,3,4-oxadiazol-2-yl)phenoxy)-5-((1-methyl-2-oxopyrrolidin-3-yl)oxy)-N-(thiazol-2-yl)benzamide] are 167%, 268%, 335% and 347%.
In the same order, the values of `Cc1csc(NC(=O)c2cc(Oc3ccc(-c4nnc(CC(C)C)o4)cc3)cc(OC3CCN(C)C3=O)c2)n1` (centres unmarked) [Example 30, 3-(4-(5-Isobutyl-1,3,4-oxadiazol-2-yl)phenoxy)-5-((1-methyl-2-oxopyrrolidin-3-yl)oxy)-N-(4-methylthiazol-2-yl)benzamide] are 126%, 249%, 370% and 386%.
The corresponding values for `Cc1csc(NC(=O)c2cc(Oc3ccc(-c4nnc(-c5ccccc5)o4)cc3)cc(OC3CCN(C)C3=O)c2)n1` (centres unmarked) [Example 31, 3-((1-Methyl-2-oxopyrrolidin-3-yl)oxy)-N-(4-methylthiazol-2-yl)-5-(4-(5-phenyl-1,3,4-oxadiazol-2-yl)phenoxy)benzamide] are 146%, 295%, 356% and 343%.
On to `CN1CCC(Oc2cc(Oc3ccc(-c4nnc(C5CC5)o4)cc3)cc(C(=O)Nc3nccs3)c2)C1=O` (centres unmarked) [Example 32, 3-(4-(5-Cyclopropyl-1,3,4-oxadiazol-2-yl)phenoxy)-5-((1-methyl-2-oxopyrrolidin-3-yl)oxy)-N-(thiazol-2-yl)benzamide], for which the activity at 0.1 µM stood at 187%, the activity at 1 µM worked out at 304%, the activity at 5 µM came out at 366% and the activity at 10 µM came to 382%.
